Measured values from patent US20160102002A1, “WATER TREATMENT” (BWA WATER ADDITIVES UK LIMITED, priority 2014, published 2016).

Experiments:
[1] = tested on: Desulfovibrio vulgaris; assay: Log10 reduction of viable anaerobic bacteria in dosed high-TDS suspension (serial dilution into API RP 38 media vials); format: cell-based; conditions: pH 7 phosphate buffer, room temperature, ppm per example
Experimental: (§1) A suspension of Desulfovibrio vulgaris plus Enterobacter aerogenes bacteria containing from 1×10^6 to 1×10^8 cells/mL was prepared in sterile pH 7 phosphate buffer containing varying levels of sodium chloride to give the desired total dissolved solids (TDS) concentration. Aliquots of this suspension were dosed with the indicated concentrations of phosphonium compound (a) and stabilised halogen containing composition (b) with the concentrations being measured as ppm by weight of the stated composition in the dosed suspension. The mixtures were allowed to stand at room temperature. At the designated contact times, each mixture was sampled to determine the total number of viable cells of both Desulfovibrio vulgaris and Enterobacter aerogenes by serial 10-fold dilution into API RP 38 media vials and anaerobic acid producing media vials, respectively. The vials were incubated at 37° C. for 72 hours. Results were recorded as cells per milliliter. […]
(§2) The efficacy of the treatment agents was evaluated by measuring the Log 10 Reduction of the anaerobic bacterium Desulfovibrio vulgaris and the facultative anaerobeic bacterium Enterobacter aerogenes after contact times of 1 hour and 24 hours as detailed in Tables 1 and 2. […]

[2] = tested on: Enterobacter aerogenes; assay: Log10 reduction of viable facultative anaerobic bacteria in dosed high-TDS suspension (serial dilution into anaerobic acid producing media vials); format: cell-based; conditions: pH 7 phosphate buffer, room temperature, ppm per example
Experimental: as §1, §2

[3] = TDS 100,000 mg l^-1, contact time 1 hour
[4] = TDS 100,000 mg l^-1, contact time 24 hours

| SMILES | Log10 Reduction Anaerobes [1, 3] | Log10 Reduction Facultative Anaerobes [2, 3] | Log10 Reduction Anaerobes [1, 4] | Log10 Reduction Facultative Anaerobes [2, 4] |
| --- | --- | --- | --- | --- |
| CCCCCCCCCCCCCC[P+](CCCC)(CCCC)CCCC.[Cl-] [Example 3, tri n-butyl n-tetradecyl phosphonium chloride] | 0 | 0 |  |  |
| CCCCCCCCCCCCCC[P+](CCCC)(CCCC)CCCC.[Cl-] [Example 17, tri n-butyl n-tetradecyl phosphonium chloride] |  |  | 0 | 0 |
